Experimental data published in patent EP0343643B1, “Arylmethylenyl derivatives of thiazolidnones, imidazolidinones and oxazolidinones useful as antiallergy agents and antiinflamatory agents” (WARNER-LAMBERT COMPANY, priority 1988, dated 1989).

Assays:
[1] = tested on: human basophils; experiment: Histamine release from human basophils (HHB), anti-IgE challenge; format: cell-based; set-up: key to HHB % Inhibition of Histamine Release at 33 µM: *: Indicates not active at 33 µM; details: 33 µM drug, human basophils challenged with anti-IgE
From the text: HISTAMINE RELEASE FROM HUMAN BASOPHILS (hereinafter HHB)
The HHB assay quantitates active histamine release, and its inhibition by drugs, from basophils of human blood. Thus, the assay provides evaluation of the compounds of formula I for treating the conditions or diseases as is the present invention. As described herein the assay includes modifications of the method described by R. P. Siraganian in "An Automated Continuous-Flow System for the Extraction and Fluorometric Analysis of Histamine", Anal. Biochem., 57, 383-394 (1974).
Blood is drawn from allergic donors (chosen on the basis of adequate histamine release induced by a challenge), using standard venipuncture methods, into Vacutainers with EDTA in water as anticoagulant. The blood samples are placed briefly on a rotary mixer. The blood is mixed with Hespan (hydroxy ethyl starch, 0.5 ml per 1.0 ml of blood), the tube inverted several times to mix and then left undisturbed at room temperature until a sharp separation is observed between the settled red cells and the leukocyte and platelet-rich plasma. This usually occurs within 35-45 minutes.
The plasma fraction is removed and centrifuged for 12 minutes at 4°C at 1050 RPM (100 Xg). The platelets remain in the plasma and are discarded. The pelleted leukocytes are shaken gently to disrupt the cell button and washed twice with HA buffer containing 0.005 M EDTA and resuspended in HACM buffer to approximately one-quarter the original blood volume. A sample is prepared for Hematology, where a total white blood cell and platelet count is done using a Coulter Counter.
Aliquots (0.1 ml) of cells are added to triplicate assay tubes containing 0.4 ml of either 6% perchloric acid (for total histamine content), vehicle control (for spontaneous release), or drug. The tubes are incubated at room temperature for 8 minutes, and then placed in a 37°C water bath for 2 more minutes. Buffer or challenge agents (at 37°C) are added to the tubes and they are incubated for an additional 45 minutes at 37°C in a shaking water bath. The tubes are then spun at 2000 RPM (1200 g) for 3 minutes to pellet the cells and the supernatants are removed and assayed for histamine by the fluorometric method.
A 300 µM stock solution of each test compound is prepared in distilled water, using 0.5 ml DMSO/100 ml and/or 0.2 ml of 1N NaOH or HCl and/or heat to aid in dissolution. Five ml of the stock solution is diluted (1:2) with 5 ml of two times concentrated HACM buffer to yield the stock working concentration of 150 µM. When added to the cells and stimulus, a final test concentration of 100 µM drug results. Further dilutions are made with HACM buffer for 33, 10, 3.3, 1.0 µM, etc.
Short ragweed and house dust extracts (Greer Laboratories, Inc.) are supplied as aqueous extracts in stock concentrations of 40,000 and 10,000 protein nitrogen units per milliliter (PNU/ml), respectively. Aqueous solutions of anti-IgE antisera (rabbit-raised antibody) are purchased from Dako via Accurate Chemicals. The aqueous solutions of ragweed, house dust, and anti-IgE are diluted 1:2 with two times concentrated HACM and then further diluted with HACM to yield final stock concentrations of 6000 PNU/ml for ragweed and house dust and 1:50 dilution for the anti-IgE antisera. Further dilutions for working solutions are made in HACM buffer. All stock and working solutions are stored at 4°C. Working solutions comprise 1/6 of the final volume in the cell reaction, therefore, working solutions of challenge agents are made up six times the required final concentration.
In each experiment, cells are challenged according to the previously determined sensitivity of that donor to the particular challenge agent. Short ragweed and house dust concentrations are expressed in PNU/ml, and anti-IgE antisera is expressed as dilutions, e.g., IE-5 (1:100,000), 3E-5 (1:30,000), and IE-4 (1:10,000).
The total histamine concentration in the "total" (acid-treated) samples must be 15 ng/ml to be acceptable. […]

[2] = tested on: carrageenan footpad edema; experiment: Carrageenan-induced rat foot paw edema-2 (CFE-2) assay; format: in vivo; details: dosed one hour before carrageenan, edema measured five hours after
Method: Carrageenan-Induced Rat Foot Paw Edema-2 (CEF-2) Assay: Protocol
Carrageenan solution (1% w/v) is prepared by dissolving 100 mg carrageenan (Marine Colloidal Div., Springfield, NJ) in 10 ml of sterile saline (0.9%) solution (Travenol). The solution is vortexed for 30 to 45 minutes. Animals are dosed with compound one hour before carrageenan challenge. Foot paw edema is induced by injecting 0.10 ml of the 1% carrageenan subcutaneously into the plantar portion of the right hind paw of each rat under light anesthesia. Initial foot paw volume is measured immediately following carrageenan challenge using mercury plethysmography (Buxco Electronics). Edemia is measured five hours after carrageenan. The difference between the five-hour and the initial paw volume is expressed as delta edema. The delta edema for each test group of animals is used to calculate the percent inhibition of edema achieved by the compound at the test dose compared with the vehicle control group. The ID₄₀ (the dose at which swelling is inhibited by 40%) is calculated by probit analysis for the dose at which 40 percent inhibition occurs.

[3] = molecular target: T1, cellular 5-lipoxygenase (Rattus norvegicus, UniProt P12527); experiment: ARBL whole cell 5-lipoxygenase assay (LTB₄ formation in RBL-1 cells); format: cell-based; details: A23187 stimulated, LTB₄ by RIA, read-out: ARBL Percent inhibition of cellular 5-lipoxygenase at 16 µM
T1 construct: ARBL/ARBC Whole Cell 5-Lipoxygenase and Cyclooxygenase Assays; host or cells: RBL-1 (rat basophilic leukemia) cells
T1 sequence (P12527 1-673): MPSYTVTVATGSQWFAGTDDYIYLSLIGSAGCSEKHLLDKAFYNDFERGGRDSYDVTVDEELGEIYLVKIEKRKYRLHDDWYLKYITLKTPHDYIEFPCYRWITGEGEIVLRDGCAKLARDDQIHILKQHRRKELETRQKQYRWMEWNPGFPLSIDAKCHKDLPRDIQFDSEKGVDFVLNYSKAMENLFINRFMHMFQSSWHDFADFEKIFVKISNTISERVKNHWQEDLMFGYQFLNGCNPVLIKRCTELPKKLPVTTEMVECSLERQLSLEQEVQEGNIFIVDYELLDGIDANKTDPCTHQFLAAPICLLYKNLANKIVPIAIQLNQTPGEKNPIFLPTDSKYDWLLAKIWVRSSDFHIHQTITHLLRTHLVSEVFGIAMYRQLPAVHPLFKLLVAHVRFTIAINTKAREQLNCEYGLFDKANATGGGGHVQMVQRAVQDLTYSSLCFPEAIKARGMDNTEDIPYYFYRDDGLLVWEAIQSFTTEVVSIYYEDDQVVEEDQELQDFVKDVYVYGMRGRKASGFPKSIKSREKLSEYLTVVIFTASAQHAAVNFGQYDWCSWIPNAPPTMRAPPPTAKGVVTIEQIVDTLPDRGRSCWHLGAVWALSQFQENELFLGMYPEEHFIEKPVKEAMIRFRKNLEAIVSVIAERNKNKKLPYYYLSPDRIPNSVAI
Method: (§1) ARBL/ARBC Whole Cell 5-Lipoxygenase and Cyclooxygenase Assays The rat basophilic Leukemia cell line (RBL-1) was obtained from the American Type Culture Collection (Rockville, MD). Radioimmunoassay (RIA) kits of LTB₄ and PGF2α were obtained from Amersham (Arlington Heights, IL) and Seragen (Boston, MA), respectively. RBL-1 cells are grown in suspension culture in Eagle's minimum essential medium supplemented with 12% fetal bovine serum at 37°C in an incubator supplied with air-5% carbon dioxide. Cells are harvested by centrifugation. They are washed with cold phosphate buffered saline pH 7.4 (PBS; NaCl, 7.1 g; Na₂HPO₄, 1.15 g; KH₂PO₄, 0.2 g; and KCl, 0.2 g/l). Cells are finally suspended in PBS containing 1.0 mM calcium at a density of 2 x 10⁶ cells/ml. […] Calcium ionophore A23187 (5 µM) is added and cells are incubated for seven minutes at 37°C. The reaction is stopped by chilling the tubes on ice for ten minutes. Cells are separated by centrifugation and the supernatant is stored at -20°. Aliquots (100 µl) are analyzed for LTB₄ and PGF2α using radioimmunoassay kits as provided by the supplier. Table 1 contains biochemical data obtained from this whole cell assay as IC₅₀s which are calculated as the amount of test compound causing 50% inhibition of LTB₄ or PGF2α formation.

[4] = tested on: cellular 5-cyclooxygenase; experiment: ARBC whole cell cyclooxygenase assay (PGF2α formation in RBL-1 cells); format: cell-based, rat; set-up: key: N inactive at screening concentration; details: A23187 stimulated, PGF2α by RIA
Method: as §1

[5] = 2-thioxo-4-oxazolidinone series

Work on O=C1NC(=S)OC1=Cc1ccc(O)c(Br)c1 [Example 13, 5-[(3-Bromo-4-hydroxyphenyl)methylene]-2-thioxo-4-oxazolidinone] yielded an inhibition at 33 µM [1, 5] of 66%.

Work on COc1cc(C=C2OC(=S)NC2=O)cc(OC)c1O [Example 6, 5-[(4-Hydroxy-3,5-dimethoxyphenyl)methylene]-2-thioxo-4-oxazolidinone] yielded an inhibition at 33 µM [1, 5] of 89%.

COc1cc(C=C2SC(=O)NC2=O)ccc1O [Example 3] gave an inhibition at 33 µM ([1]; thiazolidinedione series) of 81%.

In the case of CC(C)(C)c1cc(C=C2OC(=S)NC2=O)cc(C(C)(C)C)c1O [Example 14], the “CFE Percent inhibition of carrageenan footpad edema (CFE) test” value (“CFE Percent inhibition” for short) ([2]; dose 1 mg/kg) is reported as 44.1 (1) %, the “CFE Percent inhibition” value ([2]; dose 3 mg/kg) is reported as 41.1 (3) % and the “CFE Percent inhibition” value ([2]; dose 10 mg/kg) is reported as 32.1 (10) %. For the same compound, the “CFE Percent inhibition” value ([2]; dose 30 mg/kg) was 40.4 (30) %, the inhibition at 16 µM [3] was 92% and the “ARBC Percent inhibition of cellular 5-cyclooxygenase at 16 µM” value (from here on “ARBC Percent inhibition”) [4] was 86%.

In the case of CC(C)(C)c1cc(C=C2SC(=O)NC2=O)cc(C(C)(C)C)c1O [Example 2, 5-[[3,5-Bis(1,1-dimethylethyl)-4-hydroxyphenyl]methylene]-2,4-thiazolidinedione], the “CFE Percent inhibition” value ([2]; dose 1 mg/kg) is reported as 31.8 (1) %, the “CFE Percent inhibition” value ([2]; dose 3 mg/kg) is reported as 39.8 (3) % and the “CFE Percent inhibition” value ([2]; dose 10 mg/kg) is reported as 53.7 (10) %. The “CFE Percent inhibition” value ([2]; dose 30 mg/kg) was 58.8 (30) %, the inhibition at 33 µM ([1]; thiazolidinedione series) was 49% and the inhibition at 16 µM [3] was 100%. For the same compound, the “ARBC Percent inhibition” value [4] was 95%.

COc1cc(C=C2SC(=O)NC2=O)cc(OC)c1O [Example 1, 5-[(4-Hydroxy-3,5-dimethoxyphenyl)methylene]-2,4-thiazolidinedione] showed an inhibition at 33 µM ([1]; thiazolidinedione series) of 60%.

For COc1ccc(C=C2OC(=S)NC2=O)cc1OC [Example 5, 5-[(3,4-Dimethoxyphenyl)methylene]-2-thioxo-4-oxazolidinone], the inhibition at 33 µM [1, 5] was 43%.

COc1cc(C=C2OC(=O)NC2=O)cc(OC)c1O [Example 16, 5-[(4-Hydroxy-3,5-dimethoxyphenyl)methylene]-2,4-oxazolidinedione] was tested, and the inhibition at 16 µM [3] was 67% and the “ARBC Percent inhibition” value [4] was “N^(4)”.

With CC(C)(C)c1cc(C=C2OC(=O)NC2=O)cc(C(C)(C)C)c1O [Example 15] the “CFE Percent inhibition” value ([2]; dose 1 mg/kg) was 18.5 (1) %, the “CFE Percent inhibition” value ([2]; dose 3 mg/kg) was 23.5 (3) % and the “CFE Percent inhibition” value ([2]; dose 10 mg/kg) was 36.8 (10) %. The “CFE Percent inhibition” value ([2]; dose 30 mg/kg) was 39.4 (30) %, the inhibition at 16 µM [3] was 95% and the “ARBC Percent inhibition” value [4] was 89%.

COc1cc(C=C2OC(=S)NC2=O)ccc1O [Example 4, 5-[(4-Hydroxy-3-methoxyphenyl)methylene]-2-thioxo-4-oxazolidinone] showed an inhibition at 33 µM [1, 5] of 77%.

For COc1cc(C=C2OC(=S)NC2=O)cc(OC)c1OC [Example 10, 2-Thioxo-5-[(3,4,5-trimethoxyphenyl)methylene]-4-oxazolidinone], the inhibition at 33 µM [1, 5] was 76%.

With COc1cc(C=C2OC(=S)NC2=O)cc(Br)c1O [Example 8, 5-[(3-Bromo-4-hydroxy-5-methoxyphenyl)methylene]-2-thioxo-4-oxazolidinone] the “HHB % Inhibition of Histamine Release at 33 µM” value [1, 5] was “*”.

With COc1cc(OC)c(OC)cc1C=C1OC(=S)NC1=O [Example 9, 2-Thioxo-5-[(2,4,5-trimethoxyphenyl)methylene]-4-oxazolidinone] the “HHB % Inhibition of Histamine Release at 33 µM” value [1, 5] was “*”.
